Experimental data taken from BindingDB's records for doi:10.1074/jbc.271.42.26315 (Bayer, 1996).
“And” between values parts separate entries of the source, which are not always exact repeats. Equal entries are not always repeated. Peptide text beside a SMILES is read from it.

How the values were obtained:
[1] = target: T1, Neuropeptide Y receptor type 5 (Homo sapiens, UniProt Q15761)
T1 sequence (Q15761 whole entry): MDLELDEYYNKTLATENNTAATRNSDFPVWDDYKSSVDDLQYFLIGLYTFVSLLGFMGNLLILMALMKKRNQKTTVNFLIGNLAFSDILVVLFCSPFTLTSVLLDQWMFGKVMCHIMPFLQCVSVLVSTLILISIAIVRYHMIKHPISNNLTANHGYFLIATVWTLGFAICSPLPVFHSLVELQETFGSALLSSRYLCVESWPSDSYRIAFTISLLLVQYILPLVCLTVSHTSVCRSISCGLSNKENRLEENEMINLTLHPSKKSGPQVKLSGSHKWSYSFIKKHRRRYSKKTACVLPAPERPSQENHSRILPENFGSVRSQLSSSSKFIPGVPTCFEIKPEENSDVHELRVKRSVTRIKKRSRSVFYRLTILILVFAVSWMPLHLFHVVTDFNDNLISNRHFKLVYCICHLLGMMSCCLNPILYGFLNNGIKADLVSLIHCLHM

[2] = target: T2, Neuropeptide Y receptor type 5 (Rattus norvegicus, UniProt Q63634)
T2 sequence (Q63634 whole entry): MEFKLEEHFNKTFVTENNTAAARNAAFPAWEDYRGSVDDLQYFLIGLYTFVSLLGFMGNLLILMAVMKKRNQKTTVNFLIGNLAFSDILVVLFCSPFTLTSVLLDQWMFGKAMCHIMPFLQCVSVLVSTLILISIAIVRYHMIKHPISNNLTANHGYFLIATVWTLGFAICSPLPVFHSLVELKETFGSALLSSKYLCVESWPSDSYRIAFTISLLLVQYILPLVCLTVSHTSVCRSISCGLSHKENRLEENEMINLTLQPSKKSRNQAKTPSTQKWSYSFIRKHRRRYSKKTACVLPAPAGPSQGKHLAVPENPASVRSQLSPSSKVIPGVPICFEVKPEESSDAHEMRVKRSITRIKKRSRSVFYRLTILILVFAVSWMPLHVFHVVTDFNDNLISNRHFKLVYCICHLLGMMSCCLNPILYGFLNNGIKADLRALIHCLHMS

## CC(C)C[C@H](NC(=O)[C@H](CO)NC(=O)[C@H](C)NC(=O)[C@H](Cc1ccc(O)cc1)NC(=O)[C@H](Cc1ccc(O)cc1)NC(=O)[C@H](CCCNC(=N)N)NC(=O)[C@H](CO)NC(=O)[C@H](CC(C)C)NC(=O)[C@H](CCC(=O)O)NC(=O)[C@H](CCC(=O)O)NC(=O)[C@@H]1CCCN1C(=O)[C@@H](N)CO)C(=O)N[C@@H](CCCNC(=N)N)C(=O)N[C@@H](Cc1c[nH]cn1)C(=O)N[C@@H](Cc1ccc(O)cc1)C(=O)N[C@@H](CC(C)C)C(=O)N[C@@H](CC(N)=O)C(=O)N[C@@H](CC(C)C)C(=O)N[C@H](C(=O)N[C@H](C(=O)N[C@@H](CCCNC(=N)N)C(=O)N[C@@H](CCC(N)=O)C(=O)N[C@@H](CCCNC(=N)N)C(=O)N[C@@H](Cc1ccc(O)cc1)C(N)=O)[C@@H](C)O)C(C)C [PYY 3-36, rat] (H-SPEELSRYYASLRHYLNLVTRQRY-NH2)
[1]
  Ki: 10 nM

## N=C(N)NCCCC(NC(=O)C(c1ccccc1)c1ccccc1)C(=O)NCc1ccc(O)cc1 (stereo unspecified) [NSC_5311023]
[2]
  Ki: 1000 nM

## CC[C@H](C)[C@H](NC(=O)[C@H](Cc1ccc(O)cc1)NC(=O)[C@H](CCCNC(=N)N)NC(=O)[C@H](CCCNC(=N)N)NC(=O)[C@H](CC(C)C)NC(=O)[C@H](CCC(N)=O)NC(=O)[C@@H](NC(=O)[C@H](CCC(=O)O)NC(=O)[C@H](Cc1ccc(O)cc1)NC(=O)[C@H](CCC(N)=O)NC(=O)[C@H](C)NC(=O)[C@H](CCCNC(=N)N)NC(=O)[C@H](CCC(N)=O)NC(=O)[C@H](CCC(=O)O)NC(=O)[C@H](Cc1c[nH]cn1)NC(=O)[C@@H](NC(=O)[C@H](C)NC(=O)[C@H](Cc1ccc(O)cc1)NC(=O)[C@H](CC(=O)O)NC(=O)CNC(=O)[C@@H]1CCCN1C(=O)[C@H](Cc1ccc(O)cc1)NC(=O)[C@H](CCSC)NC(=O)[C@@H]1CCCN1C(=O)[C@H](CCC(=O)O)NC(=O)[C@H](CC(C)C)NC(=O)[C@@H]1CCCN1C(=O)[C@H](C)N)[C@@H](C)O)[C@@H](C)O)C(=O)N[C@@H](CC(N)=O)C(=O)N[C@H](C(=O)N[C@@H](CC(C)C)C(=O)N[C@H](C(=O)N[C@@H](CCCNC(=N)N)C(=O)N1CCC[C@H]1C(=O)N[C@@H](CCCNC(=N)N)C(=O)N[C@@H](Cc1ccc(O)cc1)C(N)=O)[C@@H](C)O)[C@@H](C)O [NSC_41735]
[1]
  Ki: 436 nM
[2]
  Ki: 62 nM and 296 nM

## CC[C@H](C)[C@H](NC(=O)[C@H](Cc1ccc(O)cc1)NC(=O)[C@H](Cc1cnc[nH]1)NC(=O)[C@H](CCCN=C(N)N)NC(=O)[C@H](CC(C)C)NC(=O)[C@H](C)NC(=O)[C@@H](N)CO)C(=O)N[C@@H](CC(N)=O)C(=O)N[C@@H](CC(C)C)C(=O)N[C@H](C(=O)N[C@H](C(=O)N[C@@H](CCCN=C(N)N)C(=O)N[C@@H](CCC(N)=O)C(=O)N[C@@H](CCCN=C(N)N)C(=O)N[C@@H](Cc1ccc(O)cc1)C(N)=O)[C@@H](C)O)[C@@H](C)CC [NPY22-36, rat, human]
[1]
  Ki: 1000 nM
[2]
  Ki: 1000 nM
